Tests used:
OSCC cell line (HSC-2) = conditions: in vitro; cited from earlier work
SCC7 cell line = assay: Cell viability assay (MTT); format: cell-based, murine
Procedure: Murine squamous cell carcinoma cell line, SCC7 purchased from Prof. Reinhard Zeidler, at the German Research Center for Environmental Health in Munich, were cultured in DMEM containing 10% v/v FBS and (2 mM) L-glutamine, kept at a temperature of 37° C. and in humidified atmosphere containing 5% v/v CO2 and 95% v/v air. For maintain cell growth, cells were split every 2-3 days using […] trypsin solution for detaching.
Tablets (1×3 mm) containing alginate (0.8, 1.6 mg) and liposomes (0.8 mg) in the form of layered or homogenous, either empty or DOX loaded liposomes were prepared as described above. The final concentration of DOX in each tablet was (1.68 mg mL^−1). To examine the toxicity of the tablets containing the drug on SCC7 cell line, at first cells were seeded at a uniform density of 15,000 cells per well on 96 well plates in […] DMEM medium. On the day of the experiment, medium was replaced with fresh medium containing the tablets, free DOX and in some wells empty fresh medium to serve as control. Cells were incubated for 4, 8, 12, 24, 48 and 72 hr in humidified atmosphere at 37° C. Cells viability was measured using the MTT assay. The medium was removed and (100 μl) of MTT (1 mg mL^−1) in PBS^−1 were added to each well and incubated at 37° C. for 4 hr. […] The absorbance was measured at 570 nm and 690 nm for the background absorbance. […]

## COc1cccc2c1C(=O)c1c(O)c3c(c(O)c1C2=O)C[C@@](O)(C(=O)CO)C[C@@H]3O[C@H]1C[C@H](N)[C@H](O)[C@H](C)O1 [free DOX, Doxorubicin]
OSCC cell line (HSC-2)
  apoptosis induction: induce apoptosis through the activation of caspase-3, -8 and -9
SCC7 cell line; SCC7, long times
  cell viability: 3-10%
SCC7 cell line; SCC7, short times
  cell viability: 28-40%

— patent US20240091145A1, “DRY MUCO-ADHESIVE COMPOSITIONS AND USE THEREOF” (TECHNION RESEARCH & DEVELOPMENT FOUNDATION LIMITED, priority 2021, published 2024)
